Reference: paper PMC5924804, “Various Bee Pheromones Binding Affinity, Exclusive Chemosensillar Localization, and Key Amino Acid Sites Reveal the Distinctive Characteristics of Odorant-Binding Protein 11 in the Eastern Honey Bee, Apis cerana” (Frontiers in Physiology, 2018)
Numbering of substitutions follows the chain as printed. Like-named read-outs stand apart in the source and are kept apart here.

Columns and labels:
[1] = target: recombinant AcerOBP11 (Apis cerana, UniProt S5CRW7); test: biochemical; assay type: binding
recombinant AcerOBP11, sequence (S5CRW7 entry or part of it): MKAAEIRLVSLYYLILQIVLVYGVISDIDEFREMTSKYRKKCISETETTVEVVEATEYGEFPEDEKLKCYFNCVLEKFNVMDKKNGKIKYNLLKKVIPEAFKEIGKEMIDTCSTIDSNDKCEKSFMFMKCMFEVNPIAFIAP
Method: (§1) The interactions were monitored by recording 1-NPN fluorescence upon addition of 1-NPN aliquots with excitation wavelength of 337 nm, and emission wavelength of 350–450 nm, where the slit was 5 nm. Titrations were carried out at 25°C with 1 μmol/L recombinant protein in PBS buffer. The fluorescence intensities at the maximum of emission wavelength (400~410 nm) were recorded to calculate Scatchard plots. The dissociation constant of the protein/1-NPN complex (K1−NPN) was calculated from Scatchard plots and applied in the equation below to estimate ligand binding affinity. All 23 ligands (1 mM) used in competition experiments were dissolved in spectrally pure grade methanol. Three independent measurements were taken for binding data.

[2] = target: T1, AcerOBP11m-Ile97 (Ile97Gly mutant) (Apis cerana, UniProt S5CRW7, I97G); test: Fluorescence competitive binding assay with 1-NPN, mutant AcerOBP11m-Ile97
T1 sequence (S5CRW7 1-142 I97G): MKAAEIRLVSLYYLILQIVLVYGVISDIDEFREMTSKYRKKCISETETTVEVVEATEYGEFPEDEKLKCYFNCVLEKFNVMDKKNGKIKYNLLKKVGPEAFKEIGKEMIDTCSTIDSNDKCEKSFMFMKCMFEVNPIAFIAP
Method: as §1, with “Fluorescence experiments on AcerOBP11 with N-phenyl-1-naphthylamine (1-NPN) were carried out on a Shimadzu RF-5301 spectrofluorimeter using a quartz cuvette in a right-angle configuration. The interactions” for “The interactions”
(§2) In order to verify whether the predicted interaction sites played a role in the binding of AcerOBP11 protein with ligands, site-directed mutagenesis of the corresponding amino acid was carried out. The mutant primers were designed by a partial overlap method before synthesis. The plasmids of pET-32a/AcerOBP11 wild-type were mutated by using fast mutagenesis system kit (Transgen, CN) and then transformed into BL21 (DE3) competent cells. The mutant plasmids of target sites were confirmed by sequencing, and then the mutant proteins were obtained by the induction and purification in the same method as AcerOBP11 wild-type above. The secondary structure of purified AcerOBP11 recombinant protein mutants was also analyzed using circular dichroism (CD) spectrometry (815 type, Jasco, JP). The mutant proteins were used for competitive fluorescence experiments with the six candidate ligands chosen from the previous section. The target amino acids and binding mode of AcerOBP11 binding with candidate ligands were acquired by comparing the dissociation constant KD between wild-type and mutant AcerOBP11. Statistical analysis data (mean ± SE) of KD values for the same mutated amino acid site were also used as one-way analysis of variance (ANOVA) followed by a mean LSD test.

[3] = target: T2, AcerOBP11m-Ile140 (Ile140Gly mutant) (Apis cerana, UniProt S5CRW7, I140G); test: Fluorescence competitive binding assay with 1-NPN, mutant AcerOBP11m-Ile140
T2 sequence (S5CRW7 1-142 I140G): T1 sequence (S5CRW7 1-142 I97G) with G97I, I140G
Method: as §1, with “Fluorescence experiments on AcerOBP11 with N-phenyl-1-naphthylamine (1-NPN) were carried out on a Shimadzu RF-5301 spectrofluorimeter using a quartz cuvette in a right-angle configuration. The interactions” for “The interactions”
as §2

[4] = target: T3, AcerOBP11m-Phe101 (Phe101Gly mutant) (Apis cerana, UniProt S5CRW7, F101G); test: Fluorescence competitive binding assay with 1-NPN, mutant AcerOBP11m-Phe101; settings: for change of KD compared with AcerOBP11-wt: AcerOBP11m-Phe101 vs wild-type
T3 sequence (S5CRW7 1-142 F101G): T1 sequence (S5CRW7 1-142 I97G) with G97I, F101G
Method: as §1, with “Fluorescence experiments on AcerOBP11 with N-phenyl-1-naphthylamine (1-NPN) were carried out on a Shimadzu RF-5301 spectrofluorimeter using a quartz cuvette in a right-angle configuration. The interactions” for “The interactions”
as §2

[5] = target: ASP1; set-up: method as in Weng et al., 2013; settings: ref Weng et al., 2013; cited from earlier work
[6] = target: ASP2; set-up: method as in Li et al., 2013; settings: ref Li et al., 2013; cited from earlier work
[7] = calculated from IC50, KD = [IC50]/(1+[1-NPN]/K1-NPN), Table 1, read-out: KD
[8] = displacement of 1-NPN, 1 μmol/L protein in PBS, 25°C, Table 1, read-out: [IC50]
[9] = AcerOBP11m-Ile97, Table S4, mean ± SE, read-out: KD
[10] = AcerOBP11m-Ile97, Table S4, mean ± SE, read-out: [IC50]
[11] = KD, calculated from IC50, KD = [IC50]/(1+[1-NPN]/K1-NPN), Table 1
[12] = [IC50], AcerOBP11-wt, Table S4, mean ± SE
[13] = [IC50], displacement of 1-NPN, 1 μmol/L protein in PBS, 25°C, Table 1
[14] = AcerOBP11m-Ile140, Table S4, mean ± SE, read-out: KD
[15] = AcerOBP11m-Ile140, Table S4, mean ± SE, read-out: [IC50]
[16] = AcerOBP11m-Phe101, Table S4, mean ± SE, read-out: KD
[17] = AcerOBP11m-Phe101, Table S4, mean ± SE, read-out: [IC50]
[18] = KD, AcerOBP11-wt, Table S4, mean ± SE

CC1CCC(C(C)C)C(O)C1 (racemic) [DL-Menthol]
IC50 [1]: 26.2 µM | Kd [1]: 4.34 µM

CC12CCC(CC1)C(C)(C)O2 [1,8-Cineole]
IC50 [1]: 21.1 µM | Kd [1, 7]: 4.3 µM

CCCCCC(C)=O [2-Heptanone]
Kd [1, 7]: 4.32 µM | IC50 [1, 8]: 31.1 µM

Cc1ccc(C=O)cc1C [3,4-Dimethylbenzaldehyde]
Kd [1, 7]: 4.76 µM | IC50 [1, 8]: 36.7 µM

CC1=CCC2C(C1)C2(C)C (stereo not drawn) [3-Carene]
Kd [1, 7]: 9.79 µM

C=CCc1ccc(OC)c(OC)c1 [4-Allylveratrole]
Kd [2, 9]: 5.83 ± 0.06 µM | IC50 [2, 10]: 25.823 ± 0.022 µM | change of KD compared with AcerOBP11-wt ([2]; AcerOBP11m-Ile97 vs wild-type): significantly increased | Kd [1, 11]: 2.67 µM | IC50 [1, 12]: 21 ± 0.22 µM | IC50 [1, 13]: 16.8 µM | Kd [3, 14]: 4.28 ± 0.279 µM | IC50 [3, 15]: 22.5 ± 1.46 µM | Kd [4, 16]: 4.84 ± 0.092 µM | IC50 [4, 17]: 20.1 ± 0.381 µM | change of KD compared with AcerOBP11-wt [4]: did not observe significant increases

CC(=O)CCCCC/C=C/C(=O)O [9-ODA, (E)-9-oxo-2-decanoic acid]
Kd [1, 7]: 6.67 µM | IC50 [1, 8]: 36.9 µM | Kd ([1]; read-out: KD): < 10 µM

CCCCCCCCCCCCCCCC(=O)OCC [Ethyl palmitate]
Kd [2, 9]: 1.86 ± 0.022 µM | IC50 [2, 10]: 6.61 ± 0.076 µM | Kd [1, 18]: 3.788 ± 0.012 µM | Kd [1, 11]: 3.82 µM | IC50 [1, 12]: 24.39 ± 0.076 µM | IC50 [1, 13]: 19.4 µM | Kd [3, 14]: 5.34 ± 0.167 µM | IC50 [3, 15]: 16.6 ± 0.52 µM | Kd [4, 16]: 3.89 ± 0.143 µM | IC50 [4, 17]: 20.3 ± 0.747 µM | change of KD compared with AcerOBP11-wt [4]: did not observe significant increases

CC(C)=CCC/C(C)=C/CC/C(C)=C/CO [Farnesol]
Kd [2, 9]: 5.24 ± 0.069 µM | IC50 [2, 10]: 21.3 ± 0.237 µM | change of KD compared with AcerOBP11-wt ([2]; AcerOBP11m-Ile97 vs wild-type): significantly increased | Kd [1, 11]: 4.71 µM | IC50 [1, 12]: 20.6 ± 0.237 µM | IC50 [1, 13]: 32.2 µM | Kd [3, 14]: 4.93 ± 0.133 µM | IC50 [3, 15]: 19.9 ± 0.536 µM | Kd [4, 16]: 3.14 ± 0.072 µM | IC50 [4, 17]: 17.8 ± 0.411 µM

CC(C)=CCC/C(C)=C/CO [Geraniol]
Kd [1, 11]: 8.58 µM | IC50 [1, 13]: 39.9 µM

COC(=O)c1ccc(O)cc1 [HOB, methyl p-hydroxybenzoate]
IC50 [2]: 6.09 ± 0.156 µM | Kd [2]: 1.48 ± 0.045 µM | Kd ([1]; KD): < 10 µM | Kd [1, 11]: 1.35 µM | IC50 [1, 12]: 8.31 ± 0.156 µM | IC50 [1, 13]: 8.33 µM | IC50 [3]: 5.57 ± 0.114 µM | Kd [3]: 1.91 ± 0.039 µM | IC50 [4]: 6.257 ± 0.025 µM | Kd [4]: 1.447 ± 0.006 µM | change of KD compared with AcerOBP11-wt [4]: did not observe significant increases

CC(=O)OCCC(C)C [Isoamyl acetate]
Kd [2, 9]: 4.544 ± 0.022 µM | IC50 [2, 10]: 17.75 ± 0.144 µM | change of KD compared with AcerOBP11-wt ([2]; AcerOBP11m-Ile97 vs wild-type): significantly increased | Kd [1, 11]: 3.3 µM | IC50 [1, 12]: 16.88 ± 0.144 µM | IC50 [1, 13]: 24 µM | Kd [3, 14]: 3.99 ± 0.221 µM | IC50 [3, 15]: 12.9 ± 0.697 µM | increase of KD compared with AcerOBP11-wt ([3]; AcerOBP11m-Ile140 vs wild-type, p < 0.01): 1.8 fold | Kd [4, 16]: 2.61 ± 0.063 µM | IC50 [4, 17]: 10.7 ± 0.26 µM | change of KD compared with AcerOBP11-wt [4]: did not observe significant increases

C=CC(C)(O)CCC=C(C)C (stereo not drawn) [Linalool]
IC50 [1]: 55 µM | Kd [1]: 9.53 µM

CCCCCCCC/C=C\CCCCCCCC(=O)OC [Methyl oleate]
relative fluorescence of 1-NPN ([1]; ligand 1-11 μmol/L): ≥ 50%

CCCCCCCCCCCCCCCC(=O)OC [Methyl palmitate]
Kd [1, 7]: 4.38 µM | IC50 [1, 8]: 21 µM

COC(=O)c1ccccc1O [Methyl salicylate]
IC50 [1]: 40 µM | Kd [1]: 6.83 µM

C=CC(=C)CCC=C(C)C [Myrcene]
Kd [1, 7]: 10.7 µM | IC50 [1, 8]: 45.7 µM

CCCCCCCCCCCCCC(=O)O [Myristic acid]
IC50 [1]: 45.2 µM | Kd [1]: 7.71 µM

CC(C)=CCC/C(C)=C\CO [Nerol]
Kd [1, 11]: 6.13 µM | IC50 [1, 13]: 33.9 µM

O=CCc1ccccc1 [Phenylacetaldehyde]
IC50 [1]: 21.6 µM | Kd [1]: 3.75 µM

CCCCCCO [n-hexanol]
Kd [2, 9]: 10.1 ± 0.456 µM | IC50 [2, 10]: 33.4 ± 0.785 µM | change of KD compared with AcerOBP11-wt ([2]; AcerOBP11m-Ile97 vs wild-type): significantly increased | increase of KD compared with AcerOBP11-wt ([2]; AcerOBP11m-Ile97 vs wild-type, p < 0.01): 3.60 fold | Kd [1, 18]: 2.79 ± 0.104 µM | Kd [1, 11]: 2.79 µM | IC50 [1, 12]: 21.1 ± 0.785 µM | Kd [3, 14]: 3.19 ± 0.076 µM | IC50 [3, 15]: 11.8 ± 0.283 µM | Kd [4, 16]: 2.321 ± 0.02 µM | IC50 [4, 17]: 14.26 ± 0.124 µM

CC(=O)/C=C/C1=C(C)CCCC1(C)C [β- Ionone]
Kd [5]: 14.7 µM | Kd [1, 11]: 3.79 µM | IC50 [1, 13]: 21.1 µM | Kd [6]: 5.14 µM
